Experimental data taken from PMC6851324, “Design and development of stapled transmembrane peptides that disrupt the activity of G-protein–coupled receptor oligomers” (The Journal of Biological Chemistry, 2019).
Where a SMILES comes first, the peptide text is derived from it. Bridges are numbered along the chain shown (N, C = ends). Where no end group is shown, it is not given here. [ ]: non-standard residue; d: D form. S5 = C=CCCC[C@](C)(N)C(=O)O; Nle = CCCC[C@H](N)C(=O)O

Assays:
CD helicity measurements = type: physicochemical; conditions: 30–50 μM peptide in MilliQ water, 20 °C, 1-mm path length, three scans 195–260 nm, % helicity from molar ellipticity at 222 nm
Experimental: Figure 4. Biophysical analysis of stapled peptides. A, amino acid sequence alignment of the targeted TM regions and disrupting peptides. Cys residues are in the reduced state. Blue bridges indicate the stapled amino acid residues. […] Yields, purity, and MALDI-TOF data are shown for the stapled peptides and negative control. B, CD analysis of 30–50 μM peptides at 20 °C. For proteolytic stability studies, the peptide solution (55.5 μM for trypsin and chymotrypsin and 11.1 μM for serum) was incubated in the presence of 0.55 μg/ml trypsin from porcine pancreas (E), α-chymotrypsin (F), or mouse serum (G) at 37 °C for the indicated times (indicated on the x axis). Data are mean ± S.E. (error bars) (n = 3) percentage of intact peptide normalized to t = 0. Proteolytic half-lives and putative cleavage sites (predicted using the Expasy bioinformatics server's model with a 50% probability of cleavage) are indicated at the bottom of each panel. Positive correlation between helicity and half-life in trypsin/chymotrypsin (C) or serum (D) was determined by two-tailed Pearson's correlation test. […]
CD spectra were recorded on a Jasco J-810 with a total of three scans from 195 to 260 nm in 0.5-nm increments. […]
The Jasco J-810 generates the raw output in ellipticity and is measured in millidegrees. […] Once the precise concentration was confirmed, the molar ellipticity [θ] was calculated as follows. […]
Where c is the sample concentration (μM), l is the path length (mm), n is the number of peptide bonds (calculated as amino acid residues − 1), and θobs is the observed ellipticity (millidegrees). […]

Stability in mouse serum = type: in vitro ADME; conditions: 11.1 μM peptide, fresh nonsterile mouse serum (200 μl serum + 25 μl peptide solution, pH 7.5 buffer with 10% DMSO), 37 °C, quench 15% TCA in acetonitrile, HPLC, n = 3; read-out: Half-life (hours), mouse serum (converted)
Experimental: Figure 4. Biophysical analysis of stapled peptides. A, amino acid sequence alignment of the targeted TM regions and disrupting peptides. Cys residues are in the reduced state. Blue bridges indicate the stapled amino acid residues. […] Yields, purity, and MALDI-TOF data are shown for the stapled peptides and negative control. B, CD analysis of 30–50 μM peptides at 20 °C. For proteolytic stability studies, the peptide solution (55.5 μM for trypsin and chymotrypsin and 11.1 μM for serum) was incubated in the presence of 0.55 μg/ml trypsin from porcine pancreas (E), α-chymotrypsin (F), or mouse serum (G) at 37 °C for the indicated times (indicated on the x axis). Data are mean ± S.E. (error bars) (n = 3) percentage of intact peptide normalized to t = 0. Proteolytic half-lives and putative cleavage sites (predicted using the Expasy bioinformatics server's model with a 50% probability of cleavage) are indicated at the bottom of each panel. Positive correlation between helicity and half-life in trypsin/chymotrypsin (C) or serum (D) was determined by two-tailed Pearson's correlation test. TEXT PRINTED IN THE PICTURE: (B) TM7-TAT: Ellipticity (%): 3.4 | (B) TM6-TAT: Ellipticity (%): 18.3 | (B) TM5-TAT: Ellipticity (%): 20.9 | (B) 8: Ellipticity (%): 58.3 | (B) 9: Ellipticity (%): 46.4 | (B) 10: Ellipticity (%): 36.8 | (B) 11: Ellipticity (%): 46 | (E) TM7-TAT: Half-life (min): 21; #Cleavage sites: 8 | (E) TM6-TAT: Half-life (min): 40; #Cleavage sites: 7 | (E) TM5-TAT: Half-life (min): 33; #Cleavage sites: 8 | (E) 8: Half-life (min): 307; #Cleavage sites: 0 | (E) 9: Half-life (min): 178; #Cleavage sites: 0 | (E) 10: Half-life (min): 75; #Cleavage sites: 6 | (E) 11: Half-life (min): 84; #Cleavage sites: 0 | (F) TM7-TAT: Half-life (min): 22; #Cleavage sites: 6 | (F) TM6-TAT: Half-life (min): 32; #Cleavage sites: 7 | (F) TM5-TAT: Half-life (min): 28; #Cleavage sites: 7 | (F) 8: Half-life (min): 425; #Cleavage sites: 4 | (F) 9: Half-life (min): 198; #Cleavage sites: 3 | (F) 10: Half-life (min): 63; #Cleavage sites: 2 | (F) 11: Half-life (min): 79; #Cleavage sites: 4 | (G) TM7-TAT: Half-life (hours): 0.46 | (G) TM6-TAT: Half-life (hours): 0.55 | (G) TM5-TAT: Half-life (hours): 0.81 | (G) 8: Half-life (hours): ≥18 | (G) 9: Half-life (hours): 14.7 | (G) 10: Half-life (hours): 11.7 | (G) 11: Half-life (hours): 5.3 DOUBTS OF THE COPYIST ABOUT THIS PICTURE: Panel A table (Yield, Rt, Purity, [M+H+] calc., [M+H+] Peak Found for 7-11) left out as synthesis and mass-spectrum characterisation data; uncertain whether [M+H+] calc. should count as a molecular weight
Dose–response curves were fitted using a four-parameter logistic nonlinear regression mode. Peptide stability data were fitted using a nonlinear regression mode for dissociation kinetics. All statistical tests, curve fitting, and graphing were performed using GraphPad Prism 8 (GraphPad Software, La Jolla, CA).
To 200 μl of fresh nonsterile mouse serum was added 25 μl of peptide solution (100 μM, dissolved in ammonium bicarbonate buffer, pH 7.5, containing 10% DMSO), and the mixture was incubated at 37 °C. At the specified time, an aliquot of incubation mixture was withdrawn and quenched by the addition of an equal volume of 15% TCA in acetonitrile to precipitate out serum proteins over ice for 30 min. The mixture was then centrifuged at 13,500 rpm for 10 min, and the supernatant was collected and analyzed by HPLC in a similar manner as described previously. The experiment was repeated twice on different days.

5-HT2AR–CB1R heteromers = test system: 5-HT2AR–CB1R heteromers; parameters: method as in 2 sources, ref 16 = [16]; PMID 26158621; doi:10.1371/journal.pbio.1002194; 16. Viñals X. , Moreno E. , Lanfumey L. , Cordomí A. , Pastor A. , de La Torre R. , Gasperini P. , Navarro G. , Howell L. A. , Pardo L. , Lluís C. , Canela E. I. , McCormick P. J. , Maldonado R. , and ||| ref 4, unpublished observations; conditions: synthetic TM-mimicking peptides fused to HIV-TAT; cited from earlier work

| Molecule | Ellipticity (%) (helicity by CD) (CD helicity measurements) | half-life at 11.1 μM (Stability in mouse serum) [h] | disruption of 5-HT2AR–CB1R heteromers (previous studies) (5-HT2AR–CB1R heteromers) | Ellipticity (%) (helicity by CD) (CD helicity measurements; listed as CB1 TM5-TAT) |
| --- | --- | --- | --- | --- |
| C=CCCC[C@](C)(NC(=O)[C@H](Cc1ccc(O)cc1)NC(=O)[C@@H](N)C(C)C)C(=O)N[C@@H](Cc1ccc(O)cc1)C(=O)N[C@@H](CCCC)C(=O)N[C@@](C)(CCCC=C)C(=O)N[C@H](C(=O)N[C@@H](CC(C)C)C(=O)N[C@@H](Cc1c[nH]c2ccccc12)C(N)=O)[C@@H](C)CC [Peptide 11] (H-VY[S5]Y[Nle][S5]ILW-NH2) | 46.0 |  |  |  |
| CCCC[C@H](NC(=O)[C@]1(C)CCC/C=C\CCC[C@](C)(NC(=O)[C@H](Cc2ccccc2)NC(=O)[C@H](CC(C)C)NC(=O)[C@H](CC(C)C)NC(=O)[C@H](CC(C)C)NC(=O)[C@@H](N)C(C)C)C(=O)N[C@@H](C(C)C)C(=O)N[C@@H](Cc2ccc(O)cc2)C(=O)N[C@@H](C)C(=O)N1)C(=O)N[C@@H](Cc1ccc(O)cc1)C(=O)N[C@H](C(=O)N[C@@H](CC(C)C)C(=O)N[C@@H](Cc1c[nH]c2ccccc12)C(N)=O)[C@@H](C)CC [Peptide 8] (H-VLLLF[S5]VYA[S5][Nle]YILW-NH2; staple (Z) 6-10) | 58.3 | ≥ 18 |  |  |
| GRKKRRQRRRKTLVLILVVLIICWGPLLAIMVY [TM6-TAT, reference compound] | < 20 | 0.55 | selectively disrupted |  |
| ETYLMFWIGVTSVLLLFIVYAYMYILWGRKKRRQRRR [TM5-TAT, reference compound] |  | 0.81 | selectively disrupted | < 20 |
